According to patent US6998259B1, “Enzymatic treatment of whey proteins for the production of antihypertensive peptides and the resulting products” (Davisco Foods International, priority 1999, dated 2006):
Read-outs that look alike come from different tables or passages of the source. No end group written: not given here.

How the values were obtained:
[1] = biological target: T1, Angiotensin Converting Enzyme (from rabbit lung) (Oryctolagus cuniculus, UniProt P12822); assay: ACE-inhibitory activity, in vitro spectrophotometric assay (Cushman and Cheung, HHL substrate); format: biochemical
T1 construct: Angiotensin Converting Enzyme (from rabbit lung); purchased Sigma Chemical Co. (St. Louis, USA); host or cells: rabbit lung tissue
T1 sequence (P12822 34-1310): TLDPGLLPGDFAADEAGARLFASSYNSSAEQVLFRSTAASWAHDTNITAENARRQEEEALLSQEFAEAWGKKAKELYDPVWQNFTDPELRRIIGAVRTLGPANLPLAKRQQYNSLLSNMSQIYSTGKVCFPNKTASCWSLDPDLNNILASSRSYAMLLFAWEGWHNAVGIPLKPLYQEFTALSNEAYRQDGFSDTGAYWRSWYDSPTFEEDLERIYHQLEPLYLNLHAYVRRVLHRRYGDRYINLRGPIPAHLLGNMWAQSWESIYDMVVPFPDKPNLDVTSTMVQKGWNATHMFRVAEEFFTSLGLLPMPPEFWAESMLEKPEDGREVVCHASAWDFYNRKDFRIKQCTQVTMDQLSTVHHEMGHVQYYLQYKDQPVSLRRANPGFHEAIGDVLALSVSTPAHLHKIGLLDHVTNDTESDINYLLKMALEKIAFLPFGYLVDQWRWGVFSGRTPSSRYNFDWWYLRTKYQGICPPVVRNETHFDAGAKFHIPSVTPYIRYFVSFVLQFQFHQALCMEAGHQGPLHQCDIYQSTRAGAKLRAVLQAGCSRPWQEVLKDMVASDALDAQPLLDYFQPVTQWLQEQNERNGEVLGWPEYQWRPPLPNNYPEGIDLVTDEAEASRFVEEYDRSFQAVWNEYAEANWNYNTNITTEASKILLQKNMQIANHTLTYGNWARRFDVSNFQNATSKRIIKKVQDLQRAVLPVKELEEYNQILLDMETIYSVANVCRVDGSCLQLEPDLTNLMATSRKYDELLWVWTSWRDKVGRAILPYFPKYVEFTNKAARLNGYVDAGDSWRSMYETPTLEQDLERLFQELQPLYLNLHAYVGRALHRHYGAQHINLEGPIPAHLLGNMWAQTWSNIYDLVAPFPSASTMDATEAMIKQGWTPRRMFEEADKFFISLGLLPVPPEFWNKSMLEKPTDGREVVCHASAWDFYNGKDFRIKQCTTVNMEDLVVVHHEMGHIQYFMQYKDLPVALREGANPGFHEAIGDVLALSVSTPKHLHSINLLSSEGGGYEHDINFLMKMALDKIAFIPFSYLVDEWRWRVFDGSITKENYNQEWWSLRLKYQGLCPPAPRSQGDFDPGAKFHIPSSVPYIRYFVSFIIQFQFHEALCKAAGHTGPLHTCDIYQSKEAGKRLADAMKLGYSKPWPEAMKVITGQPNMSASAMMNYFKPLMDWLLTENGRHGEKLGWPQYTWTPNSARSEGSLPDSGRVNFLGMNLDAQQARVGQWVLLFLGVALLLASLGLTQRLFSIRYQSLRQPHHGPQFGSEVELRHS
From the text: Whey protein hydrolysate WPH 917 (84.5% protein w/w) was obtained from New Zealand Milk Product Inc. (Santa Rosa, USA). Whey protein hydrolysate LE80GF (80.0% w/w) was obtained from DMV International (New-York, USA). Whey protein isolate (BiPRO™) and β-lactoglobulin-rich product were obtained from Davisco Foods International (Le Sueur, Minn., USA). Purified peptidic sequence Ala-Leu-Pro-Met-His-Ile-Arg modelling the peptide f-142–148 from β-1g was chemically-synthetized by the Service de séquence de peptides de l'Est du Québec (Ste-Foy, Qc, Canada). HEPES Sodium salt, Hippuryl-L-Histidyl-L-Leucine, and Angiotensin Converting Enzyme (from rabbit lung) were purchased from Sigma Chemical Co. (St. Louis, USA). All other products used were analytical grade.
The ACE-inhibitory activity was measured in vitro by a spectrophotometric assay according to the method of Cushman and Cheung. (Cushman, D. N., Cheung, H. S. 1971 Spectrophotometric assay and properties of the angiotensin converting enzyme of rabbit lung. Biochemical Pharmacology, 20: 1637–1648.) According to this method, hippuric acid is liberated from hippuryl-L-histidyl-L-leucine (HHL) by the enzymatic reaction of ACE. After extraction by ethyl acetate and removal of ethyl acetate by heat evaporation, hippuric acid is dissolved in deionized water.
Inhibitory activity was calculated according to the following equation: Inhibitory activity (%)=[(Acontrol−Asample)/(Acontrol−Ablank)]×[…] 1 where A represents absorbance. A plot of the inhibitory activity (%) versus log10 of sample concentration (mg powder ml^−1) was generated using 6 different concentrations of samples for BIPRO™, AS-601 (BiPRO™β-1g), commercial hydrolysates (WPH 917, LE80GF) and of synthetic peptide (f142–148) from β-1g. Each concentration was tested in triplicate and the mean value was plotted in the curves. The IC50 value (expressed in terms of mg powder ml^−1, defined as the concentration of inhibitor which gives 50% inhibition of ACE activity, was calculated using the linear regression equations of the curves.

ACE = ACE (Homo sapiens, UniProt P12821); settings: cited from earlier work
Sequence of ACE (P12821 30-1306, species assumed): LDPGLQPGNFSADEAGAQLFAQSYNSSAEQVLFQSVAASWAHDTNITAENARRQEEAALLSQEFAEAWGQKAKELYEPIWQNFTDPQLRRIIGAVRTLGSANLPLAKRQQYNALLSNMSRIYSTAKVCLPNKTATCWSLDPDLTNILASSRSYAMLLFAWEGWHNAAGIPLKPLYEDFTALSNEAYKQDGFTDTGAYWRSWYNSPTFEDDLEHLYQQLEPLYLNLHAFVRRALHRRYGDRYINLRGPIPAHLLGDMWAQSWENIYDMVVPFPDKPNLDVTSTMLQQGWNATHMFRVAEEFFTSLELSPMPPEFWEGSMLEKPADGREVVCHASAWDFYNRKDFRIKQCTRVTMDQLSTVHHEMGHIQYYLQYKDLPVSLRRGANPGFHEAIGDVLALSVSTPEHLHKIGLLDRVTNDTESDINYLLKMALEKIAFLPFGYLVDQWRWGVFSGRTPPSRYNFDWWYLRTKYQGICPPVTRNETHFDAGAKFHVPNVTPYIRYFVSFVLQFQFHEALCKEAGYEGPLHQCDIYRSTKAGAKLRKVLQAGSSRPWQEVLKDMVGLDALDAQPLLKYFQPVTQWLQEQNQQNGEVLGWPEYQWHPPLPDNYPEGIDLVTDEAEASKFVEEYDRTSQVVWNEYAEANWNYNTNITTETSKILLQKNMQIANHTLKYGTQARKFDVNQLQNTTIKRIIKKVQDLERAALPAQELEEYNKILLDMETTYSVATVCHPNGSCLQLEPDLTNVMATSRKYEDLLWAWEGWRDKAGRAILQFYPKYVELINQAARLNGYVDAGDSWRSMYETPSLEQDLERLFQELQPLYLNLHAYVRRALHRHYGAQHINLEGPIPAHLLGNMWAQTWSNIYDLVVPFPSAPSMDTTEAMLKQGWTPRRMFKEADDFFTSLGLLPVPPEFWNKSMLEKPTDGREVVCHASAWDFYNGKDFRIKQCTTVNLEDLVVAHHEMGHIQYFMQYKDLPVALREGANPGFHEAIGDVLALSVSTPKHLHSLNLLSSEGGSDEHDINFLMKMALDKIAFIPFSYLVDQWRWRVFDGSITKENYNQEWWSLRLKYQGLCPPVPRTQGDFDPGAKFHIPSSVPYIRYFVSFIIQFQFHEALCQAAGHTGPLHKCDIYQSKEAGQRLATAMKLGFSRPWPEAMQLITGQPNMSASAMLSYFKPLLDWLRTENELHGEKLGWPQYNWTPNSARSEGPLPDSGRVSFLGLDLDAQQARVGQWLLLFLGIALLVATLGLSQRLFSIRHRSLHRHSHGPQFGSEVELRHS

[2] = tested on: spontaneously hypertensive rats; settings: among nine identified peptide sequences; cited from earlier work
[3] = inhibitory activity (%) versus sample concentration (mg powder ml^−1)

With “ALPMHIR [β-1 g f142–148, Ala-Leu-Pro-Met-His-Ile-Arg]” the “Slope m of linear regression (y=m lnX+b) of the ACE-inhibitory activity curve” value [1, 3] was 10.35, the “Y-intercept b of linear regression (y=m lnX+b) of the ACE-inhibitory activity curve” value [1, 3] was 84.4 and the IC50 ([1]; rabbit lung ACE, HHL substrate, 37° C. for 20 min, 6 concentrations in triplicate, calculated from linear regression, read-out: IC50 (concentration of inhibitor which gives 50% inhibition of ACE activity) (converted)) was 47.8 µM. The IC50 (ACE; Mullally et al. 1997, read-out: IC50 (ACE inhibition)) was 42.6 µM.

In the case of “peptide f23–34 from xsl casein: peptide f23–34 from casein (bovine, variant B), from tryptic casein hydrolysate (FFVAPFPEVFGK; Alpha-S1-casein; UniProt P02662 38-49, looked up, fragment)”, the IC50 (ACE; Maruyama and Suzuki, tryptic casein hydrolysate peptide, read-out: IC50 (concentration needed to inhibit 50% ACE activity)) is listed as 77 µM.

In the case of “β-lactoglobulin (f78–80): peptide fragment 78–80 of β-lactoglobulin from proteinase K digestion of cheese whey protein (Abubakar et al.) (IPA; UniProt P02754 94-96, looked up, fragment)”, the antihypertensive activity [2] is listed as “strongest antihypertensive activity”.
